Results reported in US20240398737A1, “FUNCTIONALIZED LONG-CHAIN HYDROCARBON MONO- AND DI-CARBOXYLIC ACIDS AND DERIVATIVES THEREOF, AND THEIR USE FOR THE PREVENTION OR TREATMENT OF DISEASE” (Espervita Therapeutics, Inc., priority 2021, published 2024).
Where “and” joins values, the source holds several entries; their conditions need not be identical. Identical values can stand only once.

Tests used:
Type in all cases: biochemical
[1] = molecular target: BMX/ETK (Homo sapiens (Human), UniProt P51813); assay: Wild type kinase screen: BMX/ETK; conditions: compound at 10 μM, 10 μM ATP, Data 1 and Data 2 duplicates
[2] = molecular target: MLCK/MYLK (Homo sapiens (Human), UniProt Q15746); assay: Wild type kinase screen: MLCK/MYLK; conditions: compound at 10 μM, 10 μM ATP, Data 1 and Data 2 duplicates
[3] = molecular target: c-Kit (Homo sapiens (Human), UniProt P10721); assay: Wild type kinase screen: c-Kit; conditions: compound at 10 μM, 10 μM ATP, Data 1 and Data 2 duplicates
c-Kit, sequence (P10721 26-976): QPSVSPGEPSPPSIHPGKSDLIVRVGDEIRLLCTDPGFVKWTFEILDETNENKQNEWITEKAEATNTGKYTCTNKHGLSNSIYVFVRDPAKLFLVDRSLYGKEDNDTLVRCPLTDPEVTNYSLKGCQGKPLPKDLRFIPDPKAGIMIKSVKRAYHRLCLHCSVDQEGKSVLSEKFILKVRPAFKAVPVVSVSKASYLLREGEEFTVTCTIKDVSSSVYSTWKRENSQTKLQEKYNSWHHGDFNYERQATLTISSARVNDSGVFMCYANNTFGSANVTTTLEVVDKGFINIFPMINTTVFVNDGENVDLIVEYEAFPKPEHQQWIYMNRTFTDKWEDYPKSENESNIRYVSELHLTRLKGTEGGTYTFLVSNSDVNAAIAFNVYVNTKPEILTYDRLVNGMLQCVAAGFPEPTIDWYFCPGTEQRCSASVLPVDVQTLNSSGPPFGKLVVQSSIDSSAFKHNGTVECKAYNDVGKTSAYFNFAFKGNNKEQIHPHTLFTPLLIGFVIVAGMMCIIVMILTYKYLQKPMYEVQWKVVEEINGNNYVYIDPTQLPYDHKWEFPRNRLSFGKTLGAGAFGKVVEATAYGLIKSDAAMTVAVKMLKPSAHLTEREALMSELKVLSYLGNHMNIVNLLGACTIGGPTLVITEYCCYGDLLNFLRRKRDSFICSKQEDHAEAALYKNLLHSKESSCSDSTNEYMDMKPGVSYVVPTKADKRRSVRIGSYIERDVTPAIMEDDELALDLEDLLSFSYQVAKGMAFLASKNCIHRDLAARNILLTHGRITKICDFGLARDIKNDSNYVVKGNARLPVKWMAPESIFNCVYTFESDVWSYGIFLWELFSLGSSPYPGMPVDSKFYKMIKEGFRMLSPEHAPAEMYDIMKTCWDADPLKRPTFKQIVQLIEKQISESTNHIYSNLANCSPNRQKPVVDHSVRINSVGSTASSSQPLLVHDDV

[4] = molecular target: MELK (Homo sapiens (Human), UniProt Q14680); assay: Wild type kinase screen: MELK; conditions: compound at 10 μM, 10 μM ATP, Data 1 and Data 2 duplicates
MELK, sequence (Q14680 whole entry, species assumed): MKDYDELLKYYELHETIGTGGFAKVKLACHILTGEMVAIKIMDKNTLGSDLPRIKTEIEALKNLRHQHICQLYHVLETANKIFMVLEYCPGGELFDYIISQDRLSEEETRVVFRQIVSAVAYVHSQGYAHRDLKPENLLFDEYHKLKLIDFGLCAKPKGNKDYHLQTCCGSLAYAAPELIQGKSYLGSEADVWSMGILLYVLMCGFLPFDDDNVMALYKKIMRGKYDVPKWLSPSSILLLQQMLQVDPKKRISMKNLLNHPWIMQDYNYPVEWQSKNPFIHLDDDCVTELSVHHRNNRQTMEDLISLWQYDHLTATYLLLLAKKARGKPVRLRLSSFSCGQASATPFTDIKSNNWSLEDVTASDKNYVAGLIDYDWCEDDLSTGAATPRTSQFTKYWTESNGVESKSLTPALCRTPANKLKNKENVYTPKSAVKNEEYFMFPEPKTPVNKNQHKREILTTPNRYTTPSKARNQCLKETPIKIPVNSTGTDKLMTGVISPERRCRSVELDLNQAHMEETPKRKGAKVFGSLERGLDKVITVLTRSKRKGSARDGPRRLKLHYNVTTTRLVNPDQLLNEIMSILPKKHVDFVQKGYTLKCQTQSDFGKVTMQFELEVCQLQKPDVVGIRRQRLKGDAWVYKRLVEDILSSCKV

[5] = molecular target: human ACLY (Homo sapiens (Human), UniProt P53396); assay: ATP-citrate lyase (ACLY) enzymatic assay (ADP-Glo); conditions: recombinant human ACLY; 10 concentrations from 300 μM; Runs 1-3; read-out: Compound IC50 (M) ACLY
Description: ATP citrate lyase was obtained from Sino Biological Inc. Cat #11769-H07B, Lot #LC08DE1701. It was prepared from a DNA sequence encoding the human ACLY (P53396) (Met 1-Met 1101) expressed in Baculovirus-Insect Cells, with a polyhistidine tag at the N-terminus. The recombinant human ACLY consists of 1120 amino acids and has a calculated molecular mass of 123 kDa. It migrates as an approximately 110 kDa band in SDS-PAGE under reducing conditions. The enzyme came as a lyophilized powder in sterile 20 mM Tris, 500 mM NaCl, pH 8.0, 10% glycine. Normally 5%-8% trehalose and mannitol are added as protectants before lyophilization. The recombinant human ACLY from Sino Biological was formulated in 45 mM Tris-HCl, pH 8.0, 124 mM NaCl, 2.4 mM KCl, 18 mM glutathione, 10% glycerol, and 3 mM DTT.
To detect ADP produced from ACL assay, the ADP-Glo™ assay format from Promega, Madison, WI, was used, to detect the conversion of ATP to ADP. […] This assay is performed in two steps: i) after the ACL-mediated enzymatic reaction that utilizes ATP and produces ADP, ADP-Glo™ Reagent is added to terminate the kinase reaction and deplete the remaining ATP, and ii) the Kinase Detection Reagent is added to convert ADP to ATP and allow the newly synthesized ATP to be measured using a luciferase/luciferin reaction. The light generated, measured in a luminometer, correlates to the amount of ADP generated in the ACL assay, which is indicative of ACL activity.
Data represent nM or μM ADP produced, % Activity (relative to no inhibitor controls), and curve fits were performed by GraphPad Prism software. The IC50 concentration-response curves were generated for ADPGlo™ using recombinant human ACL from Sino Biologicals Inc.

[6] = molecular target: DDR2 (Homo sapiens (Human), UniProt Q16832); assay: Wild type kinase screen: DDR2; conditions: compound at 10 μM, 10 μM ATP, Data 1 and Data 2 duplicates
[7] = molecular target: Human ACC2 (Homo sapiens (Human), UniProt O00763); assay: ACC2 enzymatic assay (ADP-Glo); conditions: recombinant human ACC2 1 nM; 10 concentrations from 300 μM; Runs 1-3; read-out: Compound IC50 (M) ACC2
Description: (§1) Human ACC1 (Cat #50202 Lot #120830) and ACC2 (Cat #50201 Lot #160217) were obtained from BPS Biosciences, San Diego, CA 92121. Human ACC1 had C-terminal flag and His-tags with a MW of 270 KDa after purification from Baculovirus infected Sf9 cell expression system and came as a solution in 50 mM Tris-HCl, pH 8.0, 500 mM NaCl, 10% glycerol, 1 mM DTT, 100 μg/ml FLAG peptide with 70% purity. The stock concentration was 0.25 mg/ml corresponding to 0.926 μM. Human ACC2 was also purified from Baculovirus infected Sf9 expression system. […] The stock concentration was 0.1 mg/ml corresponding to 0.36 μM. The assay buffer for measuring the activity of ACC contained: 30 mM HEPES (pH 7.4), 2 mM MgCl2, 0.01% Brij35, 2 mM DTT, 1% DMSO (solvent for compound). For ACC1 and ACC2 assays, the following concentrations of substrate and cofactors were used: 12 mM NaHCO3, 10 μM acetyl CoA, 10 μM ATP, and 2 mM K-citrate. The recombinant human enzyme was used at 5 nM for ACC1 and 1 nM for ACC2. In brief, enzyme alone in the above buffer without substrate was used for background. All test materials were dissolved in 100% DMSO using acoustic technology (Echo550). The prepared solution was preincubated for 15 min followed by the addition of 5 μL/well of ADP standard. ATP was then added to start the reaction. The assay contents were spun and briefly shaken followed by incubation at room temperature for 1 h. At the end of completion of assay, 5 μL of ADP-Glo was added to each well to stop the reaction. The contents were mixed, spun and incubated at room temperature for 40 min followed by the addition of 10 μL/well of ADP detection reagent. The contents were spun, mixed and covered with plastic to measure luminescence. […] The light generated, measured in a luminometer, correlates to the amount of ADP generated in the ACC assay, which is indicative of ACC activity.
(§2) The enzyme concentrations for ACC1 and ACC2 were 5 nM and 1 nM, respectively.
Data represent nM or μM ADP produced, % Activity (relative to no inhibitor controls), and curve fits were performed by GraphPad Prism software. The IC50 concentration-response curves were generated for both the ACC1 and ACC2 assays using recombinant human ACC.

[8] = molecular target: AURORA C (Homo sapiens (Human), UniProt Q9UQB9); assay: Wild type kinase screen: AURORA C; conditions: compound at 10 μM, 10 μM ATP, Data 1 and Data 2 duplicates
AURORA C, sequence (Q9UQB9 whole entry): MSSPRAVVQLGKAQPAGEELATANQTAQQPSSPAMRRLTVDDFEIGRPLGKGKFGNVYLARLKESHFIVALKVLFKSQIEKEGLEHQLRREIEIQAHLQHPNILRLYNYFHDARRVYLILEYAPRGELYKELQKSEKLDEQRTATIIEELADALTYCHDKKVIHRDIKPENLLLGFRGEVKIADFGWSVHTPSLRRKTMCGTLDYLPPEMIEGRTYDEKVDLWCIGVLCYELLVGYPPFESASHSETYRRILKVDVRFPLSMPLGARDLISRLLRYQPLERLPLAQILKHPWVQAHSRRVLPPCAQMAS

[9] = molecular target: LIMK1 (Homo sapiens (Human), UniProt P53667); assay: Wild type kinase screen: LIMK1; conditions: compound at 10 μM, 10 μM ATP, Data 1 and Data 2 duplicates
LIMK1, sequence (P53667 whole entry, species assumed): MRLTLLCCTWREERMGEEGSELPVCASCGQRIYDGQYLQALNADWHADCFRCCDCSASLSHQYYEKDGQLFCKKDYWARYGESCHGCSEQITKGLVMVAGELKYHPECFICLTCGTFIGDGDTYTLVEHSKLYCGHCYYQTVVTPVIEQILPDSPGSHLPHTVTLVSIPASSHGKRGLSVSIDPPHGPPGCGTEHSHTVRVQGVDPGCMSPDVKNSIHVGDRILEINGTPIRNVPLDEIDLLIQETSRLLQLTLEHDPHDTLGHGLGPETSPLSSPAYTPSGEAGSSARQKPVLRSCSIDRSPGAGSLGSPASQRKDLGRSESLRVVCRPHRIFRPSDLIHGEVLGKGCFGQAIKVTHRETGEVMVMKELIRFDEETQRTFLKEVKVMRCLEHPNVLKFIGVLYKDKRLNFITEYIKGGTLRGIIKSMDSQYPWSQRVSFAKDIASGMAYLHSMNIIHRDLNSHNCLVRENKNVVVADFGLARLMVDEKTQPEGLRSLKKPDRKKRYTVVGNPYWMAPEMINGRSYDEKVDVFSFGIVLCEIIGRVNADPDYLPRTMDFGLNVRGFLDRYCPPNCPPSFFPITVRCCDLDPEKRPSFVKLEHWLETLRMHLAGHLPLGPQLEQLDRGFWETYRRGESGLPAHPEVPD

[10] = molecular target: Aurora A (Homo sapiens (Human), UniProt O14965); assay: Wild type kinase screen: Aurora A; conditions: compound at 10 μM, 10 μM ATP, Data 1 and Data 2 duplicates
Aurora A, sequence (O14965 whole entry): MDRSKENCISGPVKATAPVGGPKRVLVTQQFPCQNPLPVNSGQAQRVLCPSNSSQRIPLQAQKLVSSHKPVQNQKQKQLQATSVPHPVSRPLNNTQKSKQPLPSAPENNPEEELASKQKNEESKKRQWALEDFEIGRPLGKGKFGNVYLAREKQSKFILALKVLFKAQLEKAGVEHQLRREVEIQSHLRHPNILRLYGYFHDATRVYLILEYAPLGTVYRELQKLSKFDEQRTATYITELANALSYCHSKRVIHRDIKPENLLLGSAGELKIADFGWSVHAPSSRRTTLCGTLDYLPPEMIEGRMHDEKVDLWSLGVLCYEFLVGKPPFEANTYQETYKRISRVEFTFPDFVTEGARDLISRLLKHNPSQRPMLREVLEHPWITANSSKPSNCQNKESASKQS

[11] = molecular target: Human ACC1 (Homo sapiens (Human), UniProt Q13085); assay: ACC1 enzymatic assay (ADP-Glo); conditions: recombinant human ACC1 5 nM; 10 concentrations from 300 μM; Runs 1-3; read-out: Compound IC50 (M) ACC1
Description: as §1, §2
Data represent nM or μM ADP produced, % Activity (relative to no inhibitor controls), and curve fits were performed by GraphPad Prism software. […]

[12] = molecular target: CAMK2g (Homo sapiens (Human), UniProt Q13555); assay: Wild type kinase screen: CAMK2g; conditions: compound at 10 μM, 10 μM ATP, Data 1 and Data 2 duplicates
[13] = molecular target: MAPKAPK2 (Homo sapiens (Human), UniProt P49137); assay: Wild type kinase screen: MAPKAPK2; conditions: compound at 10 μM, 10 μM ATP, Data 1 and Data 2 duplicates
MAPKAPK2, sequence (P49137 whole entry, species assumed): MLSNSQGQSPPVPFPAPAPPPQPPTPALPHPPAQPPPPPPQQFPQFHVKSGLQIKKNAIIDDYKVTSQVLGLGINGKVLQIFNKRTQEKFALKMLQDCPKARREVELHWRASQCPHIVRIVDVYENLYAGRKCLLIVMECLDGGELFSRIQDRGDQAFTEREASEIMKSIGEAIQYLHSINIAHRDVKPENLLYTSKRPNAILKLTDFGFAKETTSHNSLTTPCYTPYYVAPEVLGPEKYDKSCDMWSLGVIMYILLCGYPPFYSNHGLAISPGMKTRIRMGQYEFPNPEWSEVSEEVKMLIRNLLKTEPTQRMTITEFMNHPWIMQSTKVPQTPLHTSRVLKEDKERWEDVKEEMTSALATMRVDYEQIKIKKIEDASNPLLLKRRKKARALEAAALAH

[14] = molecular target: FLT1/VEGFR1 (Homo sapiens (Human), UniProt P17948); assay: Wild type kinase screen: FLT1/VEGFR1; conditions: compound at 10 μM, 10 μM ATP, Data 1 and Data 2 duplicates
[15] = molecular target: PIM3 (Homo sapiens (Human), UniProt Q86V86); assay: Wild type kinase screen: PIM3; conditions: compound at 10 μM, 10 μM ATP, Data 1 and Data 2 duplicates
[16] = molecular target: Aurora B (Homo sapiens (Human), UniProt Q96GD4); assay: Wild type kinase screen: Aurora B; conditions: compound at 10 μM, 10 μM ATP, Data 1 and Data 2 duplicates
Aurora B, sequence (Q96GD4 whole entry): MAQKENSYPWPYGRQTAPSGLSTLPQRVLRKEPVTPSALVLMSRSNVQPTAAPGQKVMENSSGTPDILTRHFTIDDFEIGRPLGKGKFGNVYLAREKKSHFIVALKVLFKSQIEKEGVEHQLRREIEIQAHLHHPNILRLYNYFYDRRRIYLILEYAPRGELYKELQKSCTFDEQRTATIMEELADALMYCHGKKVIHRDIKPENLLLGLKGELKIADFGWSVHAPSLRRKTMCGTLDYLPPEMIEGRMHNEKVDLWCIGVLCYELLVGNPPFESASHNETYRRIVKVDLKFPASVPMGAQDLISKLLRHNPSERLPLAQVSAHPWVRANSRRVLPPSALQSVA

[17] = molecular target: NEK2 (Homo sapiens (Human), UniProt P51955); assay: Wild type kinase screen: NEK2; conditions: compound at 10 μM, 10 μM ATP, Data 1 and Data 2 duplicates
NEK2, sequence (P51955 whole entry, species assumed): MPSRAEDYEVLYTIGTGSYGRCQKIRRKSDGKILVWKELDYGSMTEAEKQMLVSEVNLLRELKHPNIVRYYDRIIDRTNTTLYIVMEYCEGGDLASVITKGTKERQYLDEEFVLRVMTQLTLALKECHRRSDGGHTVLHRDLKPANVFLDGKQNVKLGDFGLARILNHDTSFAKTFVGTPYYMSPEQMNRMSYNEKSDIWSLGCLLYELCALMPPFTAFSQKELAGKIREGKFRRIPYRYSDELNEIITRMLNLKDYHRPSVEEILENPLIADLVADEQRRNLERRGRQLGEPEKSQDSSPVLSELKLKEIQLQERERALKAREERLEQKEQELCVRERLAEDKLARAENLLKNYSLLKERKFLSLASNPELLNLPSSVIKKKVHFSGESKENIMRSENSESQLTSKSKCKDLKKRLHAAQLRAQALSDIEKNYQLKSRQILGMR

[18] = molecular target: GSK3b (Homo sapiens (Human), UniProt P49841); assay: Wild type kinase screen: GSK3b; conditions: compound at 10 μM, 10 μM ATP, Data 1 and Data 2 duplicates
[19] = molecular target: RIPK4 (Homo sapiens (Human), UniProt P57078); assay: Wild type kinase screen: RIPK4; conditions: compound at 10 μM, 10 μM ATP, Data 1 and Data 2 duplicates
[20] = molecular target: ERK7/MAPK15 (Homo sapiens (Human), UniProt Q8TD08); assay: Wild type kinase screen: ERK7/MAPK15; conditions: compound at 10 μM, 10 μM ATP, Data 1 and Data 2 duplicates
ERK7/MAPK15, sequence (Q8TD08 whole entry): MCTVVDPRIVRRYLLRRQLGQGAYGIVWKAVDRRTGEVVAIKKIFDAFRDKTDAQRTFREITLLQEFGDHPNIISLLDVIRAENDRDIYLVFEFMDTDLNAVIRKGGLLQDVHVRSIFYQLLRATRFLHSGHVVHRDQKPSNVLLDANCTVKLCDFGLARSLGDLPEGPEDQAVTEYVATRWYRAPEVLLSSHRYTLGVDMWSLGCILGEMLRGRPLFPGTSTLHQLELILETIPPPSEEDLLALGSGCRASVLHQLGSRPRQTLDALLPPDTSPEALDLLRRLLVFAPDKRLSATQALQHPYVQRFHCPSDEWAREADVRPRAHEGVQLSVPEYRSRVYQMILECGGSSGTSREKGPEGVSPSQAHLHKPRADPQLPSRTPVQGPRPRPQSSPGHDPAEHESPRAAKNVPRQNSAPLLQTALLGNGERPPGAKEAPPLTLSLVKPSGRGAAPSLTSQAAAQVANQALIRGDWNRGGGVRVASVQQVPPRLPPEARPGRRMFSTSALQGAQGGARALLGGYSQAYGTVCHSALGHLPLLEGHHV

[21] = molecular target: TNIK (Homo sapiens (Human), UniProt Q9UKE5); assay: Wild type kinase screen: TNIK; conditions: compound at 10 μM, 10 μM ATP, Data 1 and Data 2 duplicates

SMILES | % Enzyme Activity (relative to DMSO controls) [1] | % Enzyme Activity (relative to DMSO controls) [2] | % Enzyme Activity (relative to DMSO controls) [3] | % Enzyme Activity (relative to DMSO controls) [4] | IC50 [5] | % Enzyme Activity (relative to DMSO controls) [6] | IC50 [7] | % Enzyme Activity (relative to DMSO controls) [8] | % Enzyme Activity (relative to DMSO controls) [9] | % Enzyme Activity (relative to DMSO controls) [10] | IC50 [11] | % Enzyme Activity (relative to DMSO controls) [12] | % Enzyme Activity (relative to DMSO controls) [13] | % Enzyme Activity (relative to DMSO controls) [14] | % Enzyme Activity (relative to DMSO controls) [15] | % Enzyme Activity (relative to DMSO controls) [16] | % Enzyme Activity (relative to DMSO controls) [17] | % Enzyme Activity (relative to DMSO controls) [18] | % Enzyme Activity (relative to DMSO controls) [19] | % Enzyme Activity (relative to DMSO controls) [20] | other results
CC(C)(CCCCc1ccc(CCCCC(C)(C)C(=O)SCCNC(=O)CCNC(=O)[C@H](O)C(C)(C)COP(=O)(O)OP(=O)(O)OC[C@H]2O[C@@H](n3cnc4c(N)ncnc43)[C@H](O)[C@@H]2OP(=O)(O)O)cc1)C(=O)O [Compound I-1-CoA, 6-[4-(5-carboxy-5-methylhexyl)-phenyl]-2,2-dimethylhexanoic acid Coenzyme A ester] | 49.55% and 47.76% | 2.06% and −0.71% | 73.56% and 73.24% | 23.02% and 21.99% | 3.34e-06 M and 2.28e-06 M and 2.5e-06 M | 88.28% and 79.94% | 9.41e-06 M and 7.72e-06 M and 9.06e-06 M | 78.81% and 72.15% | 77.88% and 76.61% | 12.44% and 12.42% | 1.63e-05 M and 1.33e-05 M and 1.25e-05 M | 53.91% and 53.05% | 85.04% and 84.66% | 84.17% and 82.94% | 73.92% and 70.32% | 36.79% and 32.68% | 0.89% and 0.63% | 63.29% and 62.44% | 32.26% and 29.70% | 51.57% and 45.02% | % Enzyme Activity (relative to DMSO controls) [21]: 39.22% and 36.50%
CC(C)(CCCCc1cccc(CCCCC(C)(C)C(=O)SCCNC(=O)CCNC(=O)[C@H](O)C(C)(C)COP(=O)(O)OP(=O)(O)OC[C@H]2O[C@@H](n3cnc4c(N)ncnc43)[C@H](O)[C@@H]2OP(=O)(O)O)c1)C(=O)O [Compound I-32-CoA, 6-[3-(5—Carboxy-5-methylhexyl)-phenyl]-2,2-dimethylhexanoic acid Coenzyme A Ester] | 49.54% and 43.87% | 3.21% and 1.59% | 49.53% and 49.21% | 28.56% and 27.35% | 9.88e-07 M and 1.22e-06 M and 1.44e-06 M | 29.98% and 25.40% | 5.02e-06 M and 4.22e-06 M and 3.33e-06 M | 48.46% and 46.83% | 47.31% and 45.01% | 13.04% and 11.95% | 5.07e-06 M and 5e-06 M and 6.03e-06 M | 35.05% and 34.20% | 17.17% and 15.90% | 52.06% and 51.61% | 51.10% and 43.67% | 33.27% and 30.67% | 35.98% and 34.99% | 23.69% and 22.51% | 33.02% and 32.84% | 88.39% and 80.61% | % Enzyme Activity (relative to DMSO controls) [21]: 70.02% and 66.13%
